Assay [1] has as its system IL-6. The assay is described as follows: IL-6 inhibition in LPS-stimulated human peripheral blood mononuclear cells (HTRF). The class given is cell-based. To be noted: for EC50: huPBMCs, LPS 50 ng/mL, 22 hours, IL-6 HTRF; for inhibition at 10 µM: read-out: percent inhibition at 10 μM. Summed up:
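Fresh human PBMCs at 1×10e6 cells/mL in RPMI/1% FBS were stimulated with 50 ng/mL E. coli 0111:B4 LPS added 2 h after compound, then incubated 22 h at 37° C. Secreted IL-6 was measured by HTRF (665/620 nm ratio) after 3 h at room temperature. EC50 was taken from activity normalized to DMSO-treated cells.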

Assay [2] concerns primary human mesenchymal stem cells (hMSCs). Put plainly: Tenocyte differentiation assay (SCXA-positive cells) in hMSCs. To be noted: for percent in parentheses under EC50 >100: given for EC50 >100 μM, meaning not defined in this example; for EC50: hMSCs, 4 days, SCXA positive cells. In kind it is cell-based. The source says: Representative compounds were screened using primary human mesenchymal stem cells (hMSCs) to determine their ability to induce tenocyte differentiation (process by which tendon is developed).
Primary human mesenchymal stem cells (hMSCs) were purchased from Lonza (Walkersville, Md.) and expanded in Mesenchymal Stem Cell Growth Media (Lonza). Cells between passage 3 and 6 were used for the experiments.
Cells were fixed using 4% formaldehyde (Electron Microscopy Sciences), and stained with anti-Sclerasis (anti-SCXA) antibodies (Abgent, San Diego, Calif.) [Webb S., et.al., Retinoic acid receptor signaling preserves tendon stem cell characteristics and prevents spontaneous differentiation in vitro, Stem Cell Research & Therapy 2016, 7:45] overnight at 4° C. […] Number of cells positive for SCXA in each well was quantified using the CellInsight CX5. Data was normalized to the average of 12 DMSO treated wells on the same plate using Dotmatics Studies module. The normalized averages (fold change over DMSO) of 3 replicate wells for each compound concentration were calculated. Due to solubility limitations of some of the compounds, values for higher doses were manually corrected and curve fitting and EC50 determinations were performed using Dotmatics Studies.

Assay [3] relates to Wnt activity (Sp5-Luc reporter in SW480 cells). Put plainly: Screening assay for Wnt activity: Sp5-Luc reporter gene assay in SW480 colon carcinoma cells. To be noted: 36 to 48 hours. The class given is cell-based, human. The method in brief: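 SW480 colon carcinoma cells stably carrying a lentiviral luciferase reporter driven by an Sp5 promoter with eight TCF/LEF sites, plated at 4,000 cells/well in DMEM with 1% FBS. Compound exposure for 36–48 h at 37 °C, then luminescence read. Signals normalized to DMSO; EC50 from four-parameter nonlinear fit.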

Assay [4] has as its target DYRK1A kinase (Homo sapiens (Human), UniProt Q13627). The assay is described as follows: DYRK1A kinase assay (Ser/Thr 18 peptide Z-lyte FRET). In kind it is biochemical. To be noted: read-out: EC50 (method: IC50). Summed up: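 This Z-lyte FRET assay reads the coumarin/fluorescein emission ratio. Compounds were incubated with the reaction mixture for 1 h at room temperature, followed by development reagent for a further 1 h at room temperature, in duplicate.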

The subject of assay [5] is SW480 colon carcinoma cells. Put plainly: Cell viability assay (CellTiter-Glo) in SW480 colon carcinoma cells. The class given is cell-based, human. To be noted: four days. Summed up: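 SW480 cells stably carrying an Sp5-promoter luciferase reporter were plated at 2,000 cells/well in DMEM with 1% FBS and treated with compound for four days at 37 °C. Viability was read as ATP luminescence with CellTiter-Glo after about 12 min; DMSO-treated wells served as controls.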

Assay [6] addresses GSK3β kinase (Homo sapiens (Human), UniProt P49841). The assay is described as follows: GSK3β kinase assay (Ser/Thr 09 peptide Z-lyte FRET). The class given is biochemical. To be noted: read-out: EC50 (method: IC50). Summed up:
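Non-radioactive Z-lyte FRET read-out, kinase activity expressed as coumarin/fluorescein emission ratio. Compounds incubated with the reaction mixture one hour at room temperature in duplicate, then development buffer added for another hour. IC50 from non-linear regression of dose-response curves.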

Assay [7] concerns primary human fibroblasts derived from IPF patients (LL29 cells). Put plainly: Inhibition of the fibrotic process: αSMA staining in TGF-β1 treated LL29 fibroblasts. To be noted: LL29 cells, TGF-β1 20 ng/mL, 4 days, % αSMA positive cells. In kind it is cell-based. Summed up:
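LL29 fibroblasts from IPF patients, in F12 medium with 1% FBS, treated with TGF-β1 plus compound; TGF-β1 with DMSO as positive control, DMSO alone as negative control. After 4 days' incubation, SYTOX green nucleic acid stain added at 1 μM final, 30 min at room temperature.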

[8] abbreviates: recombinant DYRK1A, 30 μM ATP, one hour, column head prints EC50.
[9] abbreviates: recombinant GSK3β, 46 μM ATP, one hour, column head prints EC50.
Setting [10] is: Homo sapiens, Mesenchymal stem cells, 96 h.

The values below come from US10934297B2, “5-heteroaryl substituted indazole-3-carboxamides and preparation and use thereof” (Samumed, LLC, priority 2018, dated 2021).

Like-named read-outs stand apart in the source and are kept apart here. A value given as a limit tells only on which side of the number the result lay.

GSK3β kinase, sequence (P49841 whole entry): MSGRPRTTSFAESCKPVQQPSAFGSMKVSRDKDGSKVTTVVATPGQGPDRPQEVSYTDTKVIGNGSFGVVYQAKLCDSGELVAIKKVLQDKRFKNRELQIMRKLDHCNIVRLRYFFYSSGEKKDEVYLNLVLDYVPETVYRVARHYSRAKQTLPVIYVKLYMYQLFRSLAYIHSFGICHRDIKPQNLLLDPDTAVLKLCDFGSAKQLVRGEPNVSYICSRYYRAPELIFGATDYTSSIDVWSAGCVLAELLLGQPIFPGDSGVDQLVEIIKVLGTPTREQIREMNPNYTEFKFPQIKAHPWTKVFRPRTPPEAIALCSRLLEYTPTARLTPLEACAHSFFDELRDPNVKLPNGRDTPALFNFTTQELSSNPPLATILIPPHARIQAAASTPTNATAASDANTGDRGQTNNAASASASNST

For the compound “5-(1,2-Dimethyl-1H-imidazol-5-yl)-N-(2-methylthiazol-5-yl)-1H-indazole-3-carboxamide [Compound 139]”, the EC50 was 3110 nM in assay [1]; above 100000 nM in assay [2]; 335 nM in assay [3]; 473 nM in assay [5]; 1240 nM in assay [7]. For the same compound, in assay [2], the “percent in parentheses under EC50 >100” value is “(21.2%)”. Besides, the concentration for half-maximal inhibition (IC50) in assay [4] (setting [8]) stood at 4 nM; in assay [6] (setting [9]), 20 nM.
Turning to `Cn1cc(-c2cc(F)c3[nH]nc(C(=O)NC4CCC(F)(F)CC4)c3c2)cn1` [Compound 16, N-(4,4-Difluorocyclohexyl)-7-fluoro-5-(1-methyl-1H-pyrazol-4-yl)-1H-indazole-3-carboxamide], the EC50 is above 10000 nM in assay [1] (Homo sapiens, PBMC); 1380 nM in assay [2] (setting [10]); above 10000 nM in assay [3] (Homo sapiens); 7890 nM in assay [5] (Homo sapiens, 96 h); 1010 nM in assay [7] (Homo sapiens, Fibroblast, 96 h). Besides, the inhibition at 10 µM in assay [1] (Homo sapiens, PBMC) is 37.5%. Also, the results for the IC50 in assay [4] and in assay [6] were 378 nM and 41 nM, respectively.
For `CC(C)CN1CC[C@H](NC(=O)c2n[nH]c3ccc(-c4cnn(C)c4)cc23)[C@H](F)C1` [Compound 30, N-((3R,4S)-3-Fluoro-1-isobutylpiperidin-4-yl)-5-(1-methyl-1H-pyrazol-4-yl)-1H-indazole-3-carboxamide], the EC50 in assay [1] (Homo sapiens, PBMC) is above 10000 nM; in assay [2] (setting [10]), 1470 nM; in assay [3] (Homo sapiens), above 10000 nM; in assay [5] (Homo sapiens, 96 h), above 10000 nM; in assay [7] (Homo sapiens, Fibroblast, 96 h), above 10000 nM. For the same compound, the IC50 amounted to 12 nM in assay [4] and 61 nM in assay [6].
Consider `CC(C)CN1CC[C@H](NC(=O)c2n[nH]c3cc(F)c(-c4cnn(C)c4)cc23)[C@@H](F)C1` [Compound 34, 6-Fluoro-N-((3S,4S)-3-fluoro-1-isobutylpiperidin-4-yl)-5-(1-methyl-1H-pyrazol-4-yl)-1H-indazole-3-carboxamide], for which the EC50 is 3110 nM in assay [1] (Homo sapiens, PBMC); 1320 nM in assay [2] (setting [10]); above 10000 nM in assay [3] (Homo sapiens); 1840 nM in assay [5] (Homo sapiens, 96 h); 439 nM in assay [7] (Homo sapiens, Fibroblast, 96 h). Further, the IC50 in assay [4] worked out at 16 nM; in assay [6] it was 50 nM.
`CC(C)CN1CC[C@H](NC(=O)c2n[nH]c3c(F)cc(-c4cnn(C)c4)cc23)[C@@H](F)C1` [Compound 35, 7-Fluoro-N-((3S,4S)-3-fluoro-1-isobutylpiperidin-4-yl)-5-(1-methyl-1H-pyrazol-4-yl)-1H-indazole-3-carboxamide]: the 50% effective concentration (EC50) in assay [1] (Homo sapiens, PBMC) is above 10000 nM; in assay [2] (setting [10]) it was 2070 nM; in assay [3] (Homo sapiens) it was 345 nM; in assay [5] (Homo sapiens, 96 h) it was 8280 nM; in assay [7] (Homo sapiens, Fibroblast, 96 h), 288 nM. Also, in assay [1] (Homo sapiens, PBMC), the inhibition at 10 µM is 9.2%. The IC50 in assay [4] came out at 261 nM; in assay [6] it was 157 nM.
For the compound `Cc1ncc(-c2ccc3[nH]nc(C(=O)Nc4ccc(OC5CCN(C)CC5)cc4)c3c2)s1` [Compound 82, N-(4-((1-Methylpiperidin-4-yl)oxy)phenyl)-5-(2-methylthiazol-5-yl)-1H-indazole-3-carboxamide], the half-maximal effective concentration (EC50) in assay [1] (Homo sapiens, PBMC) is 3930 nM; in assay [2] (setting [10]), above 100000 nM; in assay [3] (Homo sapiens) it was 1460 nM; in assay [5] (Homo sapiens, 96 h), 1250 nM; in assay [7] (Homo sapiens, Fibroblast, 96 h), 288 nM. In assay [2], the “percent in parentheses under EC50 >100” value was “(2.9%)”. Also, the half-maximal inhibitory concentration (IC50) in assay [4] turned out to be 7 nM; in assay [6], 41 nM.
Turning to `O=C(Nc1ccc(N2CCCC2)nc1)c1n[nH]c2cc(F)c(-c3cnn(C4CCNCC4)c3)cc12` [Compound 94, 6-Fluoro-5-(1-(piperidin-4-yl)-1H-pyrazol-4-yl)-N-(6-(pyrrolidin-1-yl)pyridin-3-yl)-1H-indazole-3-carboxamide], the EC50 was above 10000 nM in assay [1] (Homo sapiens, PBMC); 798 nM in assay [3] (Homo sapiens); 732 nM in assay [5] (Homo sapiens, 96 h); 1380 nM in assay [7] (Homo sapiens, Fibroblast, 96 h). The inhibition at 10 µM in assay [1] (Homo sapiens, PBMC) was determined as 5%. Further, the IC50 was determined as 4 nM in assay [4] and 272 nM in assay [6].
For `CN1CCN(c2ccc(NC(=O)c3n[nH]c4cc(F)c(-c5cnn(C)c5)cc34)cn2)CC1` [Compound 95, 6-Fluoro-5-(1-methyl-1H-pyrazol-4-yl)-N-(6-(4-methylpiperazin-1-yl)pyridin-3-yl)-1H-indazole-3-carboxamide], the EC50 in assay [1] (Homo sapiens, PBMC) came to 1000 nM; in assay [3] (Homo sapiens), 175 nM; in assay [5] (Homo sapiens, 96 h), 286 nM; in assay [7] (Homo sapiens, Fibroblast, 96 h), 195 nM. The IC50 in assay [4] was 1 nM; in assay [6] it was 46 nM.
As for `CN1CCC(Oc2ccc(NC(=O)c3n[nH]c4cc(F)c(-c5cnn(C)c5)cc34)cn2)CC1` [Compound 96, 6-Fluoro-5-(1-methyl-1H-pyrazol-4-yl)-N-(6-((1-methylpiperidin-4-yl)oxy)pyridin-3-yl)-1H-indazole-3-carboxamide], the 50% effective concentration (EC50) was determined as 1210 nM in assay [1] (Homo sapiens, PBMC); 165 nM in assay [3] (Homo sapiens); 118 nM in assay [5] (Homo sapiens, 96 h); 367 nM in assay [7] (Homo sapiens, Fibroblast, 96 h). In addition, the half-inhibitory concentration (IC50) in assay [4] turned out to be 1 nM; in assay [6], 30 nM.
With `Cc1ncc(NC(=O)c2n[nH]c3ccc(-c4cnn(C5CCNCC5)c4)cc23)s1` [Compound 97, N-(2-Methylthiazol-5-yl)-5-(1-(piperidin-4-yl)-1H-pyrazol-4-yl)-1H-indazole-3-carboxamide], the half-maximal effective concentration (EC50) in assay [1] (Homo sapiens, PBMC) came out at 2280 nM; in assay [3] (Homo sapiens), 269 nM; in assay [5] (Homo sapiens, 96 h), 354 nM; in assay [7] (Homo sapiens, Fibroblast, 96 h), 291 nM. The values for the half-inhibitory concentration (IC50) in assay [4] and in assay [6] were 2 nM and 98 nM, respectively.
As to `Cc1ncc(NC(=O)c2n[nH]c3ccc(-c4cnn(C5CCN(C)CC5)c4)cc23)s1` [Compound 98, 5-(1-(1-Methylpiperidin-4-yl)-1H-pyrazol-4-yl)-N-(2-methylthiazol-5-yl)-1H-indazole-3-carboxamide], the EC50 in assay [1] (Homo sapiens, PBMC) came to 1120 nM; in assay [3] (Homo sapiens), 100 nM; in assay [5] (Homo sapiens, 96 h) it was 116 nM; in assay [7] (Homo sapiens, Fibroblast, 96 h), 119 nM. The IC50 in assay [4] was 2 nM; in assay [6], 208 nM.
Turning to `CN1[C@@H]2CC[C@H]1CC(NC(=O)c1n[nH]c3ccc(-c4cnn(C)c4)cc13)C2` (stereo partly drawn) [Compound 146, 5-(1-Methyl-1H-pyrazol-4-yl)-N-((1R,5S)-8-methyl-8-azabicyclo [3.2.1]octan-3-yl)-1H-indazole-3-carboxamide], the EC50 was above 10000 nM in assay [1] (Homo sapiens, PBMC); above 100000 nM in assay [2] (setting [10]); 1580 nM in assay [3] (Homo sapiens); above 10000 nM in assay [5] (Homo sapiens, 96 h); above 10000 nM in assay [7] (Homo sapiens, Fibroblast, 96 h). Also, in assay [1] (Homo sapiens, PBMC), the inhibition at 10 µM was 4.7%. For the same compound, the “percent in parentheses under EC50 >100” value in assay [2] is on record as “(35.9%)”.
Take `Cn1cc(-c2cc3c(C(=O)Nc4ccc(OCCN5CCCC5)cc4)n[nH]c3cc2F)cn1` [Compound 155, 6-Fluoro-5-(1-methyl-1H-pyrazol-4-yl)-N-(4-(2-(pyrrolidin-1-yl)ethoxy)phenyl)-1H-indazole-3-carboxamide]: the 50% effective concentration (EC50) stood at 2050 nM in assay [1] (Homo sapiens, PBMC); 315 nM in assay [3] (Homo sapiens); 414 nM in assay [5] (Homo sapiens, 96 h); 167 nM in assay [7] (Homo sapiens, Fibroblast, 96 h). Besides, the IC50 was 1 nM in assay [4] and 38 nM in assay [6].
As for “N-(6-(Difluoromethoxy)pyridin-3-yl)-5-(1-(piperidin-4-yl)-1H-pyrazol-4-yl)-1H-indazole-3-carboxamide [Compound 87]”, the EC50 was found to be 3850 nM in assay [1], 216 nM in assay [3], 554 nM in assay [5] and 672 nM in assay [7]. Besides, the values for the IC50 in assay [4] (setting [8]) and in assay [6] (setting [9]) were 8 nM and 182 nM, respectively.
